According to the NIST ThermoML archive (doi:10.1021/je400733m):

Settings: for vapor or sublimation pressure: Liquid; for mass density: Gas, isochoric method

F [hydrogen fluoride]
Settings | vapor or sublimation pressure [kPa]
293.12 K | 102.1
303.13 K | 145.3
313.16 K | 202.1
323.08 K | 274.7
333.13 K | 368.7
343.1 K | 487.1
353.14 K | 636.4
363.17 K | 822.2
373.14 K | 1048.5
383.21 K | 1327.1
393.11 K | 1659.3
403.1 K | 2060.2
413.14 K | 2541.3
423.14 K | 3111.5
433.06 K | 3778.1
443.01 K | 4566
454.15 K | 5611.6

Settings | mass density [kg/m3]
293.15 K, 27.7 kPa | 0.232
293.15 K, 29 kPa | 0.245
293.15 K, 31.8 kPa | 0.282
293.15 K, 34.5 kPa | 0.32
293.15 K, 37.2 kPa | 0.36
293.15 K, 41.5 kPa | 0.438
293.15 K, 55.5 kPa | 0.802
293.15 K, 69.3 kPa | 1.311
293.15 K, 83.3 kPa | 1.954
293.15 K, 98.6 kPa | 2.86
303.15 K, 26.4 kPa | 0.212
303.15 K, 29.4 kPa | 0.239
303.15 K, 34.2 kPa | 0.283
303.15 K, 38 kPa | 0.32
303.15 K, 41.5 kPa | 0.356
303.15 K, 45.1 kPa | 0.395
303.15 K, 52.7 kPa | 0.491
303.15 K, 64.8 kPa | 0.694
303.15 K, 78 kPa | 0.999
303.15 K, 90 kPa | 1.359
303.15 K, 102.6 kPa | 1.818
303.15 K, 114.8 kPa | 2.327
303.15 K, 126.7 kPa | 2.883
303.15 K, 141.6 kPa | 3.802
313.15 K, 29.3 kPa | 0.227
313.15 K, 35.9 kPa | 0.28
313.15 K, 36.4 kPa | 0.28
313.15 K, 39.6 kPa | 0.307
313.15 K, 41.4 kPa | 0.326
313.15 K, 42.5 kPa | 0.331
313.15 K, 48.3 kPa | 0.385
313.15 K, 53.3 kPa | 0.426
313.15 K, 55.1 kPa | 0.447
313.15 K, 57 kPa | 0.461
313.15 K, 62.1 kPa | 0.51
313.15 K, 68.9 kPa | 0.59
313.15 K, 74 kPa | 0.644
313.15 K, 82.8 kPa | 0.767
313.15 K, 90.7 kPa | 0.883
313.15 K, 96.6 kPa | 0.992
313.15 K, 109.1 kPa | 1.246
313.15 K, 110.3 kPa | 1.285
313.15 K, 124.3 kPa | 1.653
313.15 K, 129.3 kPa | 1.787
313.15 K, 138 kPa | 2.078
313.15 K, 148 kPa | 2.417
313.15 K, 152 kPa | 2.579
313.15 K, 165.7 kPa | 3.118
313.15 K, 165.8 kPa | 3.133
313.15 K, 180.3 kPa | 3.777
313.15 K, 180.5 kPa | 3.797
323.15 K, 55 kPa | 0.422
323.15 K, 100.9 kPa | 0.842
323.15 K, 117.9 kPa | 1.05
323.15 K, 156.9 kPa | 1.731
323.15 K, 181.4 kPa | 2.343
323.15 K, 204.5 kPa | 3.061
323.15 K, 228.7 kPa | 3.949
333.15 K, 29.2 kPa | 0.218
333.15 K, 99.9 kPa | 0.759
333.15 K, 112.6 kPa | 0.863
333.15 K, 142.2 kPa | 1.147
333.15 K, 163.7 kPa | 1.386
333.15 K, 180 kPa | 1.61
333.15 K, 199.2 kPa | 1.904
333.15 K, 222.8 kPa | 2.36
333.15 K, 234.8 kPa | 2.612
333.15 K, 246.2 kPa | 2.902
333.15 K, 270.8 kPa | 3.552
333.15 K, 276.4 kPa | 3.753
333.15 K, 305.8 kPa | 4.693
333.15 K, 317.3 kPa | 5.162
333.15 K, 341.5 kPa | 6.088
333.15 K, 343.5 kPa | 6.229
343.15 K, 24.6 kPa | 0.179
343.15 K, 67.3 kPa | 0.488
343.15 K, 141.7 kPa | 1.05
343.15 K, 244.7 kPa | 2.094
343.15 K, 289.6 kPa | 2.791
343.15 K, 340.6 kPa | 3.856
343.15 K, 375.4 kPa | 4.777
343.15 K, 414.8 kPa | 6.034
343.15 K, 455.3 kPa | 7.553
353.15 K, 50.5 kPa | 0.352
353.15 K, 118.5 kPa | 0.833
353.15 K, 189 kPa | 1.359
353.15 K, 279.3 kPa | 2.154
353.15 K, 334.2 kPa | 2.782
353.15 K, 391.1 kPa | 3.617
353.15 K, 450.1 kPa | 4.75
353.15 K, 509 kPa | 6.216
353.15 K, 583.5 kPa | 8.604
363.15 K, 78.7 kPa | 0.523
363.15 K, 151.2 kPa | 1.024
363.15 K, 268.6 kPa | 1.886
363.15 K, 349.7 kPa | 2.574
363.15 K, 435.2 kPa | 3.463
363.15 K, 519.5 kPa | 4.617
363.15 K, 610.3 kPa | 6.318
363.15 K, 704.7 kPa | 8.73
363.15 K, 792.4 kPa | 11.696
373.15 K, 59.5 kPa | 0.389
373.15 K, 135.1 kPa | 0.89
373.15 K, 249.7 kPa | 1.674
373.15 K, 360.6 kPa | 2.495
373.15 K, 444.9 kPa | 3.191
373.15 K, 555.7 kPa | 4.277
373.15 K, 661.8 kPa | 5.611
373.15 K, 768.8 kPa | 7.405
373.15 K, 872.6 kPa | 9.733
373.15 K, 971.7 kPa | 12.608
383.15 K, 109.3 kPa | 0.69
383.15 K, 256.8 kPa | 1.656
383.15 K, 388.4 kPa | 2.569
383.15 K, 518.3 kPa | 3.557
383.15 K, 666.4 kPa | 4.865
383.15 K, 794.6 kPa | 6.263
383.15 K, 928.9 kPa | 8.187
383.15 K, 1067 kPa | 10.825
383.15 K, 1201 kPa | 14.245
393.15 K, 172.3 kPa | 1.108
393.15 K, 337.7 kPa | 2.178
393.15 K, 505.5 kPa | 3.335
393.15 K, 674.9 kPa | 4.611
393.15 K, 840.7 kPa | 6.052
393.15 K, 1013 kPa | 7.764
393.15 K, 1175 kPa | 10.132
393.15 K, 1344 kPa | 13.239
393.15 K, 1498 kPa | 17.048
403.15 K, 240.6 kPa | 1.492
403.15 K, 449.3 kPa | 2.829
403.15 K, 652.2 kPa | 4.216
403.15 K, 862.3 kPa | 5.791
403.15 K, 1069 kPa | 7.588
403.15 K, 1278 kPa | 9.802
403.15 K, 1491 kPa | 12.74
403.15 K, 1709 kPa | 16.83
403.15 K, 1897 kPa | 21.668
413.15 K, 222.3 kPa | 1.32
413.15 K, 371.4 kPa | 2.232
413.15 K, 508.9 kPa | 3.095
413.15 K, 683.2 kPa | 4.229
413.15 K, 883.6 kPa | 5.621
413.15 K, 1059 kPa | 6.93
413.15 K, 1234 kPa | 8.38
413.15 K, 1399 kPa | 9.914
413.15 K, 1557 kPa | 11.607
413.15 K, 1728 kPa | 13.746
413.15 K, 2034 kPa | 18.831
413.15 K, 2223 kPa | 23.108
433.15 K, 309.8 kPa | 1.785
433.15 K, 698.6 kPa | 4.1
433.15 K, 1068.9 kPa | 6.452
433.15 K, 1452 kPa | 9.113
433.15 K, 1847 kPa | 12.286
433.15 K, 2258 kPa | 16.303
433.15 K, 2635 kPa | 21.034
433.15 K, 3001 kPa | 27.275
433.15 K, 3365 kPa | 36.362
433.15 K, 3703 kPa | 50.976
453.15 K, 476.5 kPa | 2.703
453.15 K, 1014 kPa | 5.793
453.15 K, 1550 kPa | 9.121
453.15 K, 2081 kPa | 12.797
453.15 K, 2621 kPa | 17.077
453.15 K, 3133 kPa | 21.99
453.15 K, 3651 kPa | 28.309
453.15 K, 4173 kPa | 36.974
453.15 K, 4738 kPa | 51.158
453.15 K, 5189 kPa | 73.046
473.15 K, 398.6 kPa | 2.061
473.15 K, 719.1 kPa | 3.785
473.15 K, 1113 kPa | 5.969
473.15 K, 1557 kPa | 8.541
473.15 K, 1986 kPa | 11.159
473.15 K, 2275 kPa | 13.033
473.15 K, 2590 kPa | 15.167
473.15 K, 2992 kPa | 18.107
473.15 K, 3473 kPa | 22.184
473.15 K, 4349 kPa | 30.552
473.15 K, 4995 kPa | 38.609
473.15 K, 5640 kPa | 49.429
473.15 K, 6393 kPa | 68.899
473.15 K, 7041 kPa | 98.187
